Consider 6 compounds from patent US4407799A, “2-Substituted-phenyl-1,3-perhydrothiazine-4-one” (priority 1980, dated 1983).

In one data set the test system is peptic ulcer. The note with it: cited from earlier work.
A short description of data set [1]: Acute toxicity test, oral. More on the design: species or system Female ICR-mice. The settings on record: mouse, in vivo, mortality observed for a week, Litchfield-Wilcoxon. The procedure: Female ICR-mice of body weight of 20 to 24 g, 5 weeks after birth were used.
Eight animal per group were kept in a transparent polycage at room temperature of 23°±1° C., and RH of 60 to 70%.
After minutely pulverizing each one of the present compounds, the pulverized compound was suspended in an aqueous 5% sodium carboxymethylcellulose solution containing 20% of Tween-80. The aqueous suspension was forcibly orally administered by a metal stomach tube, the dose rate having been adjusted by changing the concentration of the present compound in the aqueous suspension.
In some mortal cases, the rat's spontaneous movement was lowered with the reduction of general tension and the rats died as they were.

The test system of data set [2] is duodenal peptic ulcer due to acetic acid. The data set can be described thus: Effect on peptic ulcer due to acetic acid (duodenal ulcer). The format is in vivo, male rats. The settings on record: 100 mg/kg, oral, rats; for Ulcer coefficient: 3 times a day for 10 days from third day; for Rate of suppression of ulcer: 3 times a day for 10 days, versus control. From the text: The inventors of the present invention, taking into account of these situations, added to the above-mentioned method of evaluation the effect of accelerating the cure of the peptic ulcer by orally administering the present compound and a commercialized anti-peptic ulcer medicine, respectively to rats to which duodenal peptic ulcer due to acetic acid (refer to Okabe, 1971) considered to be most closely resembling to human peptic ulcer has been artificially formed.
Following the method of Okabe et al (refer to Amer. J. Dig. Dis., 16, […]), 6 groups (15 animals per group) of male rats weighing 240 to 260 g were subjected to laparotomy under ether anesthesia in which a metal circular frame was placed on the serosa at a distance of 5 to 7 mm from the duodenal pylorus, 0.06 ml of glacial acetic acid was poured into the frame. After 30 seconds, the liquid containing the acetic acid was removed and then the frame was removed. The test compound suspended in an aqueous 0.5% solution of carboxymethylcellulose was orally administered to the rat 3 times a day from the third day of the operation for consecutive 10 days. To the control group, only the solution of carboxymethylcellulose was administered. After the administration was over, the rats were sacrificed with ether, and their duodenum was removed to observe under a microscope for anatomy. The length and width of the thus-formed ulcer were measured and their product (expressed with mm^2) was recorded as the ulcer coefficient.
By the way, the above-mentioned experimental model has been highly evaluated internationally because the thus-formed ulcer is scarcely curable in nature and the histopathological change of the ulcer lesion closely resembles to that of human chronic ulcer as compared to the method of cautery-ulcer (refer to Skoryna, 1958) and the method of crumping-cortisone (refer to Umehara, 1965).

Data set [3] relates to peptic ulcer due to pyloric ligation. The data set can be described thus: Effect on peptic ulcer due to pyloric ligation. The format is in vivo, male rats. The settings on record: 100 mg/kg, intraperitoneal, rats; for Ulcer coefficient: just after pyloric ligation, 15 hours; for Rate of suppression of ulcer: pyloric ligation, versus control. On the procedure: Six groups (10 animals per group) of male rats weighing 180 to 200 g were subjected to ligation of their pyloruses under ether-anesthesia after fasting for 48 hours according to the method of Shay et al. (refer to Gastroenterology, 5, page 43 (1945)).
Just after subjecting to ligation, each of the present compound suspended in an aqueous physiological saline solution was intraperitoneally administered to each rat, the control being injected with an aqueous physiological saline solution. Then, after 15 hours of fasting without taking water, the rats were sacrificed with ether and their stomachs were removed to examine under a microscope for anatomy. The length and width of the thus-formed ulcer in the stomach were determined and expressed by the product (mm^2), and the total sum of the products was represented as the ulcer coefficient.

Regarding `CC1(C)[C@@H](OC(=O)CCC(=O)O)CC[C@]2(C)[C@H]3C(=O)C=C4[C@@H]5C[C@@](C)(C(=O)O)CC[C@]5(C)CC[C@@]4(C)[C@]3(C)CC[C@@H]12` [carbenoxolone], the Side effects result with peptic ulcer is “aldosterone-like side effects to cause hypertension and weakening of muscular function”. The “Accelerating effect on ulcer-curing” value with peptic ulcer (commercialized medicine, background) is “excellent accelerating effect on the ulcer-curing”.
For orientation: LD50 means the dose at which mortality reaches 50%. The low end stands for greater toxicity, the high end for lower toxicity. In turn, `COc1ccccc1C1NC(=O)CCS1` (centres unmarked) [Compound 3, 2-(2-methoxyphenyl)-1,3-perhydrothiazine-4-one] showed an LD50 at 168 h in data set [1] of more than 8000 mg/kg. In addition, in data set [2], the Ulcer coefficient was 1.5 mm^2 and the “Rate of suppression of ulcer” value is recorded as 80.2%. Further, in data set [3], the Ulcer coefficient is 2.4 mm^2 and the “Rate of suppression of ulcer” value worked out at 93.5.
In the same order, the values of `COc1ccc(C2NC(=O)CCS2)cc1` (centres unmarked) [Compound 4, 2-(4-methoxyphenyl)-1,3-perhydrothiazine-4-one] are more than 8000 mg/kg, 1.3 mm^2, 82.8%, 2.0 mm^2 and 94.5.
For `CC(C)=CCCC(C)=CCCC(C)=CCCC(=O)OCC=C(C)CCC=C(C)C` [Positive control, 3,7dimethyl-2,6-octadienyl-5,9,13-trimethyl-4,8,12-tetradecatrienoate, reference compound], in data set [2], the Ulcer coefficient turned out to be 6.1 mm^2 and the “Rate of suppression of ulcer” value worked out at 20.0%. Also, in data set [3], the Ulcer coefficient came out at 32.5 mm^2 and the “Rate of suppression of ulcer” value stood at 12.2.
`COc1ccc(C2NC(=O)CCS2)cc1OC` (centres unmarked) [Compound 2, 2-(3,4-dimethoxyphenyl)-1,3-perhydrothiazine-4-one] had an LD50 at 168 h in data set [1] of more than 8000 mg/kg. For the same compound, in data set [2], the Ulcer coefficient turned out to be 2.0 mm^2 and the “Rate of suppression of ulcer” value is reported as 73.6%. In data set [3], the Ulcer coefficient amounted to 1.9 mm^2 and the “Rate of suppression of ulcer” value came to 94.3.
The matching figures for `COc1cc(C2NC(=O)CCS2)cc(OC)c1OC` (centres unmarked) [Compound 1, 2-(3,4,5-trimethoxyphenyl)-1,3-perhydrothiazine-4-one]: 5400 mg/kg, 2.5 mm^2, 67.1%, 9.3 mm^2 and 74.9.
